In article PMC3274592 (Archives of Biochemistry and Biophysics, 2011):

Assays:
CYP158A1 [1] = target: CYP158A1 (Streptomyces coelicolor, UniProt Q9KZF5, K90I); test: UV-vis difference spectral titration; type: binding
CYP158A1 [2] = target: CYP158A1 (Streptomyces coelicolor, UniProt Q9KZF5); test: UV-vis difference spectral titration; type: binding
CYP158A1 (Streptomyces coelicolor, UniProt Q9KZF5), sequence (Q9KZF5 whole entry): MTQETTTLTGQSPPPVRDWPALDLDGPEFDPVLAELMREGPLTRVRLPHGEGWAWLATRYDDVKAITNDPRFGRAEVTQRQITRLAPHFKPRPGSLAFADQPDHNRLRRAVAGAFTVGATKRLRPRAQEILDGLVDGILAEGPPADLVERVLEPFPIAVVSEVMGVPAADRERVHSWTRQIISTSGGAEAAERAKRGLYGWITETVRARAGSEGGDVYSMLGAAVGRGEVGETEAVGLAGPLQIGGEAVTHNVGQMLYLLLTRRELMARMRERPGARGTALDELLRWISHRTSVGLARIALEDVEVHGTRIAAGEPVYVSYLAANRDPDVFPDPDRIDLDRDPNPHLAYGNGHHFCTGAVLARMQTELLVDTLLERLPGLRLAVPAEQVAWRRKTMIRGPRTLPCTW

CYP158A1 (Streptomyces coelicolor, UniProt Q9KZF5, K90I), sequence (Q9KZF5 whole entry K90I): as the sequence (Q9KZF5 whole entry) above, with K90I counted along it

- Kd (CYP158A1 [1]): 16.9 µM
- Kd (CYP158A1 [2]): 10.5 µM
SMILES: O=C1C(O)=CC(=O)c2c(O)cc(O)cc21 [flaviolin]
